# Results reported in patent US11505530B2, “1,8-naphthalimide derivative, preparation method therefor and use thereof” (SOOCHOW UNIVERSITY, priority 2018, dated 2022).
# Key:
# Type in all cases: physicochemical
# [1] = UV-Vis absorption response of BNGT to pH; conditions: for maximum absorption wavelength: BNGT 10 μM
# Protocol: Preparing a 1.0×10^−3 mol/L BNGT stock solution with acetonitrile as a solvent, and transferring 100 μL of the BNGT stock solution respectively into three series of 10 mL volumetric flasks; adding 7 mL of deionized water to the first series of volumetric flasks, adding 2 mL of deionized water and 5 ml of acetonitrile to the second series of volumetric flasks, and adding 1 mL of deionized water and 8 ml of acetonitrile to the third series of volumetric flasks; then titrating to the desired pH value respectively with 0.1 M NaOH and 0.1 M HCl aqueous solutions, and finally making up to volume with deionized water to obtain an acetonitrile/water solution of BNGT with different pHs in three solvent systems, the volume ratios of acetonitrile/water in the three solvent systems being 1/99, 1/1 and 8/2, respectively.
# Therefore, in the three solvents (acetonitrile/water in a volume ratio of 1/99, 1/1 and 8/2), BNGT could be used as a pH colorimetric switch by means of three ways (a maximum absorption wavelength, absorbance and color).
# [2] = Speed of response of BNGT to pH; conditions: three solvents
# Source text: To investigate the speed of response of BNGT to pH, adding 1 M NaOH aqueous solution to an acetonitrile/water (in a volume ratio of 1/99 (a), 1/1 (b) and 8/2 (c)) solution of BNGT at pH 5.8 to adjust the pH to 6.0; measuring the UV-Vis absorption spectrum of the solution before and after the adjustment, and plotting the maximum absorption wavelength and color over time, with the results as shown in FIG. 8; solvent: acetonitrile/water, in a volume ratio of 1/99 (a), 1/1 (b) and 8/2 (c); concentration: BNGT 10 μM.
# The absorbance was plotted against time and the results were shown in FIG. 9; solvent: acetonitrile/water, in a volume ratio of 1/99 (a), 1/1 (b) and 8/2 (c); concentration: BNGT 10 μM; absorption wavelength: 527 nm, 535 nm and 537 nm.
# [3] = Effect of coexisting metal ions on BNGT as pH colorimetric switch; conditions: pH 5.8 and pH 6.0, metal ions 100 μM
# Protocol: In order to understand the interference of common metal ions on BNGT as a pH colorimetric switch, Fe^2+, Fe^3+, Cu^2+, K^+, Na^+, Mg^2+, Ag^+, Zn^2+, Cr^3+, Cd^2+, […], Ni^2+, Mn^2+, Pb^2+, Hg^2+ and Ca^2+ were added to the acetonitrile/water (in a volume ratio of 1/99 (a), 1/1 (b) and 8/2 (c)) solution, and the UV-Vis absorption spectra of the solution before and after the addition of these metal ions were obtained. […]
# Second, the effect of coexisting metal ions on the absorbance of the solution at 527 nm, 535 nm and 537 nm was investigated, with the results as shown in FIG. 11; solvent: acetonitrile/water, in a volume ratio of 1/99 (a), 1/1 (b) and 8/2 (c); concentration: BNGT 10 μM, metal ions 100 μM; 1: none, 2: Ca^2+, 3: Mg^2+, 4: Ag^+, 5: Pb^2+, 6: Cu^2+, 7: Mn^2+, 8: Co^2+, 9: Cd^2+, 10: Ni^2+, 11: K^+, 12: Na^+, 13: Fe^3+, 14: Zn^2+, 15: Cr^2+, 16: Hg^2+, 17: Fe^2+; absorption wavelength: 527 nm, 535 nm and 537 nm. […] Therefore, the aforementioned metal ions had little effect on the response of BNGT to pH in terms of enhanced absorbance.
# [4] = Reversibility of BNGT as pH colorimetric switch; conditions: pH alternating between 5.8 and 6.0
# Source text: 1 M HCl and 1 M NaOH were used to make the pH value of the acetonitrile/water (in a volume ratio of 1/99 (a), 1/1 (b) and 8/2 (c)) solution of BNGT alternately change between 5.8 and 6.0, so as to determine the UV-Vis absorption spectrum of the solution.
# First, the reversibility of response of the maximum absorption wavelength and color of the solution to pH was investigated, with the results as shown in FIG. 12; solvent: acetonitrile/water, in a volume ratio of 1/99 (a), 1/1 (b) and 8/2 (c); concentration: BNGT 10 μM.
# Second, the reversibility of response of the absorbance of BNGT to pH at 527 nm, 535 nm and 537 nm was investigated, with the results as shown in FIG. 13; solvent: acetonitrile/water, in a volume ratio of 1/99 (a), 1/1 (b) and 8/2 (c); concentration: BNGT 10 μM; the maximum absorption wavelengths corresponding to the absorbance of the three solutions were 527 nm, 535 nm and 537 nm, respectively. It can be seen from the figure that the pH value alternated between 5.8 and 6.0, and the absorbance of the acetonitrile/water (in a volume ratio of 1/99 (a), 1/1 (b) and 8/2 (c)) solution of BNGT also changed circularly from small to large at 527 nm, 535 nm and 537 nm, respectively.
# [5] = pH 5.8 to 6.0, acetonitrile/water 1/1
# [6] = pH 5.8 to 6.0, acetonitrile/water 1/99
# [7] = pH 5.8 to 6.0, acetonitrile/water 8/2
smiles,measurement,setting,value
CCCCN1C(=O)c2cccc3c(NN=CC=NC(CO)(CO)CO)ccc(c23)C1=O [BNGT],maximum absorption wavelength,"[1]; pH 1.9 to 5.8, acetonitrile/water 1/1",around 420 nm
same,maximum absorption wavelength,"[1]; pH 1.9 to 5.8, acetonitrile/water 1/99",around 432 nm
same,maximum absorption wavelength,"[1]; pH 1.9 to 5.8, acetonitrile/water 8/2",around 422 nm
same,increase of absorbance at 535 nm,[1]; [5],about 20 times
same,red shift of maximum absorption wavelength,[1]; [5],115 nm
same,increase of absorbance at 527 nm,[1]; [6],about 6 times
same,red shift of maximum absorption wavelength,[1]; [6],95 nm
same,increase of absorbance at 537 nm,[1]; [7],about 28 times
same,red shift of maximum absorption wavelength,[1]; [7],115 nm
same,maximum absorption wavelength,"[1]; pH 6.0 to 12.0, acetonitrile/water 1/1",around 535 nm
same,maximum absorption wavelength,"[1]; pH 6.0 to 12.0, acetonitrile/water 1/99",about 527 nm
same,maximum absorption wavelength,"[1]; pH 6.0 to 12.0, acetonitrile/water 8/2",around 537 nm
same,stability of absorbance for the next 30 min,[2]; after pH adjusted to 6.0,remained basically stable
same,time for absorbance to reach the maximum,"[2]; pH 5.8 adjusted to 6.0 with NaOH, 527 nm, 535 nm and 537 nm",about 2 min
same,color change,[2]; pH changed from 5.8 to 6.0,colorless to red
same,effect of coexisting metal ions on absorbance,"[3]; 527 nm, 535 nm and 537 nm",did not change much
same,effect of coexisting metal ions on maximum absorption wavelength and color,"[3]; BNGT 10 μM, three solvents",almost unchanged
same,reversibility of response of absorbance to pH,"[4]; 527 nm, 535 nm and 537 nm",very good reversibility
same,reversibility of response of maximum absorption wavelength and color to pH,[4]; three solvents,good reversibility
